Laboratory results taken from patent US20230233567A1, “BELVARAFENIB FOR USE IN CANCER TREATMENT” (Hanmi Pharm. Co., Ltd., priority 2020, published 2023).
Like-named read-outs stand apart in the source and are kept apart here.

Assay: Phase I study plasma pharmacokinetics
Format: in vivo, human
Settings: for AUC(0-inf) / AUC(0-t) / Cmax / AUC / Vd/F / Tmax: human, plasma, oral; for AUC: read-out: AUC24; for Vd/F: read-out: Vz/F; for Tmax: median, read-out: Tmax
Text: The PK parameters of belvarafenib were estimated in 48 patients in the dose-escalation phase and 35 patients in the dose-expansion phase. In the tables: “AUClast” refers to the area under the plasma concentration-time curve from zero time until the last measurable concentration; “AUC0-∞” refers to area under the plasma concentration-time curve from zero time to infinity; “AUC24” refers to the area under the curve from T0 to T24; “Cmax” refers to the maximal concentration; “Tmax” refers to the time to reach Cmax; “T1/2β” refers to the terminal elimination half-life; “QD” refers to once a day; and “BID” refers to twice a day. […] Mean and coefficient of variation are presented except for Tmax where median and range are presented. One patient in the 200 QD dosing regimen who took concomitant rifampin was removed from the analysis because the AUC and Cmax of the patient were much lower than those of the others in the same cohort, which, without being bound to any particular theory, could have resulted from the drug-metabolizing enzyme induction by rifampin through which belvarafenib is biotransformed.

[1] = Day 1 first dose, 50 mg/day QD, n=3, mean
[2] = Day 1 first dose, 100 mg/day QD, n=3, mean
[3] = Day 1 first dose, 200 mg/day QD, n=6, mean
[4] = Day 1 first dose, 200 mg/day QD, n=7, mean
[5] = Day 1 first dose, 400 mg/day BID, n=11, mean
[6] = Day 1 first dose, 600 mg/day BID, n=7, mean
[7] = Day 1 first dose, 600 mg/day QD, n=6, mean
[8] = Day 1 first dose, 900 mg/day BID, n=8, mean
[9] = Day 1 first dose, 1300 mg/day BID, n=6, mean
[10] = Day 1 first dose, 1600 mg/day BID, n=6, mean
[11] = Multiple administrations Day 17, 50 mg/day QD, n=2, mean
[12] = Multiple administrations Day 22, 100 mg/day QD, n=3, mean
[13] = Multiple administrations Day 22, 200 mg/day QD, n=5, mean
[14] = Multiple administrations Day 22, 200 mg/day QD, n=6, mean
[15] = Multiple administrations Day 22, 400 mg/day BID, n=8, mean
[16] = 50 mg/day, Multiple administrations Day 17, 50 mg/day QD, n=2, mean
[17] = 100 mg/day, Multiple administrations Day 22, 100 mg/day QD, n=3, mean
[18] = 200 mg/day, Multiple administrations Day 22, 200 mg/day QD, n=5, mean
[19] = 200 mg/day, Multiple administrations Day 22, 200 mg/day QD, n=6, mean
[20] = 400 mg/day, Multiple administrations Day 22, 400 mg/day BID, n=8, mean
[21] = 600 mg/day, Multiple administrations Day 22, 600 mg/day BID, n=6, mean

Cc1ccc2c(Nc3cccc(Cl)c3F)nccc2c1NC(=O)c1csc2c(N)ncnc12 [Belvarafenib]
CL/F [1]: 2.5 L/h | T1/2β [1]: 51.6 h | CL/F [2]: 2.5 L/h | T1/2β [2]: 55.3 h | CL/F [3]: 7.3 L/h | T1/2β [3]: 57.7 h | CL/F [4]: 15.4 L/h | T1/2β [4]: 50.5 h | CL/F [5]: 7.8 L/h | T1/2β [5]: 70.7 h | CL/F [6]: 7.7 L/h | T1/2β [6]: 86.6 h | CL/F [7]: 9.9 L/h | T1/2β [7]: 58.9 h | CL/F [8]: 5.7 L/h | T1/2β [8]: 84.3 h | CL/F [9]: 9.0 L/h | T1/2β [9]: 77.4 h | CL/F [10]: 14.5 L/h | T1/2β [10]: 215.8 h | CL/F [11]: 0.6 L/h | T1/2β [11]: 70.7 h | CL/F [12]: 0.9 L/h | T1/2β [12]: 106.1 h | CL/F [13]: 1.3 L/h | T1/2β [13]: 69.8 h | CL/F [14]: 2.4 L/h | T1/2β [14]: 65.1 h | CL/F [15]: 3.3 L/h | T1/2β [15]: 41.2 h | T1/2β (Multiple administrations Day 22, 600 mg/day BID, n=6, mean): 52.3 h | CL/F (Multiple administrations Day 22, 600 mg/day BID, n=6, mean (CV)): 2.2 (63.3) L/h | T1/2β (Multiple administrations Day 22, 600 mg/day QD, n=6, mean): 97.7 h | CL/F (Multiple administrations Day 22, 600 mg/day QD, n=6, mean (CV)): 3.4 (81.8) L/h | T1/2β (Multiple administrations Day 22, 900 mg/day BID, n=7, mean): 32.3 h | CL/F (Multiple administrations Day 22, 900 mg/day BID, n=7, mean (CV)): 3.8 (50.7) L/h | T1/2β (Multiple administrations Day 22, 1300 mg/day BID, n=6, mean): 66.4 h | CL/F (Multiple administrations Day 22, 1300 mg/day BID, n=6, mean (CV)): 2.7 (54.7) L/h | T1/2β (Multiple administrations Day 22, 1600 mg/day BID, n=4, mean): 42.7 h | CL/F (Multiple administrations Day 22, 1600 mg/day BID, n=4, mean (CV)): 14.8 (61.2) L/h | mean plasma concentration versus dose (from 50 mg QD to 650 mg BID): linearity in a dose-proportional manner | AUC(0-inf) [16]: 88800 ng·h/mL | AUC(0-t) [16]: 18900 ng·h/mL | Cmax [16]: 1120 ng/mL | AUC [16]: 18900 ng·h/mL | Vd/F [16]: 57.6 L | Tmax (50 mg/day, Multiple administrations Day 17, 50 mg/day QD, n=2): 3 h | AUC(0-inf) [17]: 349000 ng·h/mL | AUC(0-t) [17]: 41900 ng·h/mL | Cmax [17]: 1990 ng/mL | AUC [17]: 42000 ng·h/mL | Vd/F [17]: 62.7 L | Tmax (100 mg/day, Multiple administrations Day 22, 100 mg/day QD, n=3): 5 h | AUC(0-inf) [18]: 239000 ng·h/mL | AUC(0-t) [18]: 48200 ng·h/mL | Cmax [18]: 2520 ng/mL | AUC [18]: 48200 ng·h/mL | Vd/F [18]: 116 L | Tmax (200 mg/day, Multiple administrations Day 22, 200 mg/day QD, n=5): 3.2 h | AUC(0-inf) [19]: 203000 ng·h/mL | AUC(0-t) [19]: 41600 ng·h/mL | Cmax [19]: 2210 ng/mL | AUC [19]: 41700 ng·h/mL | Vd/F [19]: 178 L | Tmax (200 mg/day, Multiple administrations Day 22, 200 mg/day QD, n=6): 3.1 h | AUC(0-inf) [20]: 207000 ng·h/mL | AUC(0-t) [20]: 67500 ng·h/mL | Cmax [20]: 3210 ng/mL | AUC [20]: 68900 ng·h/mL | Vd/F [20]: 157 L | Tmax (400 mg/day, Multiple administrations Day 22, 400 mg/day BID, n=8): 13.1 h | AUC(0-inf) [21]: 507000 ng·h/mL | AUC(0-t) [21]: 116000 ng·h/mL | Cmax [21]: 5700 ng/mL | AUC [21]: 120000 ng·h/mL | Vd/F [21]: 122 L | Tmax (600 mg/day, Multiple administrations Day 22, 600 mg/day BID, n=6): 3.4 h
